Assay results taken from patent US7705003B2, “Cyclohexylamides as dopamine D3, D2 and 5-HT1A Antagonists” (Richter Gedeon Vegyeszeti Gyar RT., priority 2005, dated 2010).

Tests used:
Male CD-1 mice = assay: Inhibition of apomorphine induced climbing; format: in vivo; settings: for ED50: Mus musculus; for ranking of activity in apomorphine climbing assay: apomorphine climbing in mice
Protocol: With respect to the expected clinical application of the compounds of the present invention in addition to their receptor binding profile their in vivo efficacy is a crucial issue as well. Therefore, in vivo potency and efficacy of the compounds of formula (I) were studied in the apomorphine climbing assay, an animal screening test for antipsychotic activity.
5. Inhibition of Apomorphine Induced Climbing
Male CD-1 mice weighing 20-25 g were injected orally (n=12) with the test compound or vehicle. Fifty minutes later the animals were placed into cylindrical cages with walls of vertical metal bars. After 10 minutes habituation the mice were treated with apomorphine (1.5 mg/kg sc.). […] Scores were summed for each individual and group means were calculated. Drug effect was expressed and plotted as percentage inhibition of the apomorphine induced behaviour.

D2 receptor = D2 receptor (Rattus norvegicus, UniProt P61169); assay: D2 receptor binding ([3H]spiperone, rat brain striatal membrane)
Protocol: Non-specific binding was determined in the presence of 1 μM (+) butaclamol.

α1 receptor = assay: α-1 receptor binding ([3H]-prazosine, rat cortical membrane)
Protocol: α1 receptor binding study was performed according to the methods described by Greengrass and Bremner (Eur. J. Pharmacol., 55:323-326, 1979) on rat cortical membrane preparation using [^3H]-prazosine (0.22-0.37 nM) as ligand. The non-specific binding was determined in the presence of 10 μM phentolamine.

[1] = molecular target: T1, rat recombinant D3 receptors (Rattus norvegicus, UniProt P19020); assay: D3 receptor binding ([3H]spiperone); settings: rat recombinant D3 receptors expressed in Sf9 cells
T1 construct: purchased Perkin-Elmer 6110139; host or cells: Sf9 cells

5-HT1A receptor = molecular target: T2, 5-HT1A receptor (Rattus norvegicus, UniProt P19327); assay: 5-HT1A binding ([3H]8-OH-DPAT, rat hippocampal membrane); settings: [3H]8-hydroxy-2-(di-n-propylamino)-tetralin
T2 construct: on rat hippocampal membrane preparation; from tissue; host or cells: rat hippocampus membranes
T2 sequence (P19327 1-422): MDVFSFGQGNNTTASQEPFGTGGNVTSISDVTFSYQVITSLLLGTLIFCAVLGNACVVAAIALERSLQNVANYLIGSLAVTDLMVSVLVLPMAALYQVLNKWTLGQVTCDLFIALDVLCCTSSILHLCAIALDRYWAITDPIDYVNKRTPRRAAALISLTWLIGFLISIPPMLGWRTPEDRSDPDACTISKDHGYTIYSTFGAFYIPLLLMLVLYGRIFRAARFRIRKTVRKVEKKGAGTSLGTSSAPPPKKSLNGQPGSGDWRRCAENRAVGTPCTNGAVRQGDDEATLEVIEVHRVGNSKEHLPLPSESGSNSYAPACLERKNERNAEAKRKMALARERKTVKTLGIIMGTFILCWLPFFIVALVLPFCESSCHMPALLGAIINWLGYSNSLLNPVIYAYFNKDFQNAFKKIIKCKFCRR
Protocol: The non-specific binding was determined in the presence of 10 μM serotonin creatinine sulphate.

T1 sequence (P19020 whole entry): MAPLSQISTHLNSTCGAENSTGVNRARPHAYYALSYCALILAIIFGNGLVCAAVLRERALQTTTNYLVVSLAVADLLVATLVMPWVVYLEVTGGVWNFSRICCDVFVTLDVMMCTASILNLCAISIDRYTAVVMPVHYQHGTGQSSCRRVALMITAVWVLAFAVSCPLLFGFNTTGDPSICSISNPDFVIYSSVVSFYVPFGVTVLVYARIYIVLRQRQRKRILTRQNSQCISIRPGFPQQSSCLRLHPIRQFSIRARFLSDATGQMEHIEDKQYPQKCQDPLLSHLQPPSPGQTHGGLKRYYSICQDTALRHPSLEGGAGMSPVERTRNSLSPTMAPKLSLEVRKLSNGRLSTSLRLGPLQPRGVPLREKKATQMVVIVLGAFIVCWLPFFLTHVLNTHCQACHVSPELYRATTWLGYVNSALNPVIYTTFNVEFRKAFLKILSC
Chain of D2 receptor (P61169 1-415 isoform P61169-2): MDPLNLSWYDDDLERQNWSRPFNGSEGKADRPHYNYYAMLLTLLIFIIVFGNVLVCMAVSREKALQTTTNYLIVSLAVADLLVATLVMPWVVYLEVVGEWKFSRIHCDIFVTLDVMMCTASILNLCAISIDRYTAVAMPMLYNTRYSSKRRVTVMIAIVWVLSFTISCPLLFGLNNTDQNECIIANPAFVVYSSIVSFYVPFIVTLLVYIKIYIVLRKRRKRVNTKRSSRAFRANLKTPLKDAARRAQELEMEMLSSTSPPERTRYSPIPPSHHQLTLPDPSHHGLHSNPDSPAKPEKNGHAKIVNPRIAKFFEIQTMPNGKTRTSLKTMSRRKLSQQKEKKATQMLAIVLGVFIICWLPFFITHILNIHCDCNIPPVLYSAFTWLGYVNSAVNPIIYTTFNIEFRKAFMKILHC

Q: For `O=C1CCc2ccc(OCCCCN3CCN(c4cccc(Cl)c4Cl)CC3)cc2N1` [Aripiprazole, reference compound], which ED50 (Male CD-1 mice) is on record?
A: The ED50 was 1 mg/kg.

Q: Which IC50 (D2 receptor) does the source give for `CC(=O)N[C@H]1CC[C@H](CCN2CCN(c3cccc4c3CCC4)CC2)CC1` [Compound 1, trans-N-{4-[2-[4-(indan-4-yl)-piperazin-1-yl]-ethyl]-cyclohexyl}-acetamide] here?
A: The IC50 was 10 to 40 nM.

Q: What about the ED50 (Male CD-1 mice) of the same compound?
A: Its ED50 is 0.14 mg/kg.

Q: And the “ranking of activity in apomorphine climbing assay” value (Male CD-1 mice)?
A: The value was “most active”.

Q: And the IC50 (α1 receptor)?
A: The IC50 was 40 to 200 nM.

Q: What about the IC50 [1] of the same compound?
A: Its IC50 is under 2 nM.

Q: What about the melting point of the same compound?
A: The melting point was 202 to 204 °C.

Q: And the IC50 (5-HT1A receptor)?
A: Its IC50 is 1 to 20 nM.

Q: Which IC50 (D2 receptor) does the source give for `CCC(=O)N[C@H]1CC[C@H](CCN2CCN(c3cccc4c3CCC4)CC2)CC1` [Compound 2, trans-N-{4-[2-[4-(indan-4-yl)-piperazin-1-yl]-ethyl]-cyclohexyl}-propionamide] here?
A: The IC50 was 10 to 40 nM.

Q: What about the ED50 (Male CD-1 mice) of the same compound?
A: Its ED50 is 0.21 mg/kg.

Q: And the IC50 (α1 receptor)?
A: The IC50 was 40 to 200 nM.

Q: And the IC50 [1]?
A: The IC50 was under 2 nM.

Q: And the melting point?
A: The melting point was 194 to 196 °C.

Q: And the IC50 (5-HT1A receptor)?
A: Its IC50 is 1 to 20 nM.

Q: What does the source list for `CN(C)C(=O)N[C@H]1CC[C@H](CCN2CCN(c3cccc4c3CCC4)CC2)CC1` [Compound 3, trans-1-{4-[2-[4-(indan-4-yl)-piperazin-1-yl]-ethyl]-cyclohexyl}-3,3-dimethyl-urea]?
A: IC50 (D2 receptor): 10 to 40 nM; ED50 (Male CD-1 mice): 0.11 mg/kg; ranking of activity in apomorphine climbing assay (Male CD-1 mice): most active; IC50 (α1 receptor): 40 to 200 nM; IC50 [1]: < 2 nM; melting point: 150 to 152 °C; IC50 (5-HT1A receptor): 1 to 20 nM

Q: With `CCN(CC)C(=O)N[C@H]1CC[C@H](CCN2CCN(c3cccc4c3CCC4)CC2)CC1` [Compound 4, trans-1-{4-[2-[4-(indan-4-yl)-piperazin-1-yl]-ethyl]-cyclohexyl}-3,3-diethyl-urea] as the compound, how does the IC50 (D2 receptor) read?
A: The IC50 was 10 to 40 nM.

Q: And the ED50 (Male CD-1 mice)?
A: The ED50 was 0.46 mg/kg.

Q: What about the IC50 (α1 receptor) of the same compound?
A: The IC50 was 40 to 200 nM.

Q: What about the IC50 [1] of the same compound?
A: Its IC50 is under 2 nM.

Q: And the melting point?
A: Its melting point is 157 to 159 °C.

Q: What about the IC50 (5-HT1A receptor) of the same compound?
A: Its IC50 is 1 to 20 nM.

Q: With `CCNC(=O)N[C@H]1CC[C@H](CCN2CCN(c3cccc4c3CCC4)CC2)CC1` [Compound 5, trans-1-{4-[2-[4-(indan-4-yl)-piperazin-1-yl]-ethyl]-cyclohexyl}-3-ethyl-urea] as the compound, how does the IC50 (D2 receptor) read?
A: The IC50 was 10 to 40 nM.

Q: And the ED50 (Male CD-1 mice)?
A: The ED50 was 0.47 mg/kg.

Q: What about the IC50 (α1 receptor) of the same compound?
A: The IC50 was 40 to 200 nM.

Q: What about the IC50 [1] of the same compound?
A: Its IC50 is under 2 nM.

Q: What about the melting point of the same compound?
A: The melting point was 198 to 200 °C.

Q: And the IC50 (5-HT1A receptor)?
A: The IC50 was 1 to 20 nM.

Q: Which IC50 (D2 receptor) does the source give for `O=C(N[C@H]1CC[C@H](CCN2CCN(c3cccc4c3CCC4)CC2)CC1)N1CCOCC1` [Compound 6, trans-N-{4-[2-[4-(indan-4-yl)-piperazin-1-yl]-ethyl]-cyclohexyl}-morpholine-4-carboxamide] here?
A: The IC50 was 10 to 40 nM.

Q: What about the ED50 (Male CD-1 mice) of the same compound?
A: The ED50 was 0.16 mg/kg.

Q: And the “ranking of activity in apomorphine climbing assay” value (Male CD-1 mice)?
A: Its value is “most active”.

Q: And the IC50 (α1 receptor)?
A: The IC50 was 40 to 200 nM.

Q: And the IC50 [1]?
A: The IC50 was under 2 nM.

Q: And the melting point?
A: The melting point was 181 to 182 °C.

Q: And the IC50 (5-HT1A receptor)?
A: Its IC50 is 1 to 20 nM.

Q: Which melting point does the source give for `NC(=O)N[C@H]1CC[C@H](CCN2CCN(c3cccc4c3CCC4)CC2)CC1` [Compound 7, trans-1-{4-[2-[4-(indan-4-yl)-piperazin-1-yl]-ethyl]-cyclohexyl}-urea] here?
A: Its melting point is 204 to 206 °C.

Q: Which melting point does the source give for `CN(C)C(=O)N[C@H]1CC[C@H](CN2CCN(c3cccc4c3CCC4)CC2)CC1` [Compound 8, trans-1-{4-[[4-(indan-4-yl)-piperazin-1-yl]-methyl]-cyclohexyl}-3,3-dimethyl-urea] here?
A: The melting point was 152 to 154 °C.

Q: What does the source list for `CC(=O)N[C@H]1CC[C@H](CCN2CCN(c3cccc4c3CCCC4)CC2)CC1` [Compound 9, trans-N-{4-[2-[4-(5,6,7,8-tetrahydronaphthalen-1-yl)-piperazin-1-yl]-ethyl]-cyclohexyl}-acetamide]?
A: IC50 (D2 receptor): 10 to 40 nM; ED50 (Male CD-1 mice): 0.26 mg/kg; IC50 (α1 receptor): > 200 nM; IC50 [1]: < 2 nM; melting point: 187 to 189 °C; IC50 (5-HT1A receptor): 1 to 20 nM

Q: Which IC50 (D2 receptor) does the source give for `CCC(=O)N[C@H]1CC[C@H](CCN2CCN(c3cccc4c3CCCC4)CC2)CC1` [Compound 10, trans-N-{4-[2-[4-(5,6,7,8-tetrahydronaphthalen-1-yl)-piperazin-1-yl]-ethyl]-cyclohexyl}-propionamide] here?
A: Its IC50 is 10 to 40 nM.

Q: And the ED50 (Male CD-1 mice)?
A: The ED50 was 0.35 mg/kg.

Q: And the IC50 (α1 receptor)?
A: Its IC50 is over 200 nM.

Q: What about the IC50 [1] of the same compound?
A: The IC50 was under 2 nM.

Q: What about the melting point of the same compound?
A: Its melting point is 182 to 185 °C.

Q: And the IC50 (5-HT1A receptor)?
A: The IC50 was 1 to 20 nM.

Q: Which results are given for `CN(C)C(=O)N[C@H]1CC[C@H](CCN2CCN(c3cccc4c3CCCC4)CC2)CC1` [Compound 11, trans-1-{4-[2-[4-(5,6,7,8-tetrahydronaphthalen-1-yl)-piperazin-1-yl]-ethyl]-cyclohexyl}-3,3-dimethyl-urea]?
A: IC50 (D2 receptor): 10 to 40 nM; ED50 (Male CD-1 mice): 0.23 mg/kg; IC50 (α1 receptor): 40 to 200 nM; IC50 [1]: < 2 nM; melting point: 190 to 193 °C; IC50 (5-HT1A receptor): 1 to 20 nM

Q: For `O=C(N[C@H]1CC[C@H](CCN2CCN(c3cccc4c3CCCC4)CC2)CC1)N1CCOCC1` [Compound 12, trans-N-{4-[2-[4-(5,6,7,8-tetrahydronaphthalen-1-yl)-piperazin-1-yl]-ethyl]-cyclohexyl}-morpholine-4-carboxamide], which IC50 (D2 receptor) is on record?
A: Its IC50 is 10 to 40 nM.

Q: What about the ED50 (Male CD-1 mice) of the same compound?
A: Its ED50 is 0.2 mg/kg.

Q: What about the IC50 (α1 receptor) of the same compound?
A: Its IC50 is 40 to 200 nM.

Q: And the IC50 [1]?
A: The IC50 was under 2 nM.

Q: What about the melting point of the same compound?
A: Its melting point is 178 to 180 °C.

Q: And the IC50 (5-HT1A receptor)?
A: The IC50 was 1 to 20 nM.

Q: For `Cc1cc2c(s1)Nc1ccccc1N=C2N1CCN(C)CC1` [Olanzapine, reference compound], which ED50 (Male CD-1 mice) is on record?
A: The ED50 was 1.3 mg/kg.
